For experiment [1], the system named is A(H1N1)pdm09 neuraminidase (NA). The experiment is classed as biochemical, influenza A(H1N1)pdm09 virus.
In experiment [2] the target is B/Victoria-lineage neuraminidase (NA). In kind it is biochemical, influenza B/Victoria-lineage virus.

For `[H]/N=C(\N)N[C@H]1C=C(C(=O)O)O[C@@H]([C@H](OC)[C@H](O)CO)[C@@H]1NC(C)=O` [Laninamivir, laninamivir], the “inhibition class (NI, RI, HRI)” value in experiment [1] is reported as “NI (key: normal inhibition (NI) (A viruses <10-fold; reduced inhibition (RI) (A viruses 10- to 100-fold; highly reduced inhibition (HRI) (A viruses >100-fold)”.

Take `CCC(CC)[C@H](NC(C)=O)[C@@H]1[C@H](O)[C@@H](C(=O)O)C[C@H]1N=C(N)N` [Peramivir, peramivir]: the “IC50 values fold higher than the median” value in experiment [2] is recorded as 8- to 14 fold.

Source of the values: publication PMC5357725, “Global update on the susceptibility of human influenza viruses to neuraminidase inhibitors, 2014–2015” (Antiviral Research, 2016).
